“And” between values parts separate entries of the source, which are not always exact repeats. Equal values may be shown once.
Each molecule was assayed on P. falciparum 3D7 growth, pLDH absorbance (assay: P. falciparum 3D7 growth inhibition, dose response, strain 3D7 (AID 2305)).
With `S=C(Nc1ccc2c(c1)OCCO2)NC1CCC(CN2CCC(c3c[nH]c4ccccc34)CC2)CC1` (stereo unspecified) the IC50 was 650 nM and 1000 nM.
Molecule `Cc1ccc(Nc2nccc(NCC(O)c3cccc(C(F)(F)F)c3)n2)cc1` (stereo unspecified) has an IC50 of 680 nM.
`O=C(/C=C/c1ccccc1O)NCCCCCN1CCC(c2c[nH]c3ccccc23)CC1` showed an IC50 of 830 nM.
In the case of `C=C[C@H]1CN(CCCCCCC)CC[C@H]1CCN(C)c1ccnc2ccc(OC)cc12`, the IC50 is reported as 450 nM.
Work on `CC(=O)Oc1c(C2CCN(CCCCNC(=O)c3ccc(NC(=O)c4ccc(Cl)cc4)cc3)CC2)ccc2c1CCCC2` yielded an IC50 of 760 nM.
`CCC1(C)CC(CCNCc2ccccc2O)(c2ccc(F)cc2)CCO1` (stereo unspecified) gave an IC50 of 880 nM.
Work on `NC(N)=NC(=O)Nc1cc(Br)c(Cl)c(Br)c1` yielded an IC50 of 770 nM.
`O=[N+]([O-])c1cccc(CNC2CCN(Cc3ccc4ccccc4c3)CC2)c1` showed an IC50 of 760 nM.
`COCCn1c(C)nc2ccccc2c1=O` was tested, and the IC50 was 1460 nM.
`CCCCc1ccc(CCNCCCCCCNCCc2ccc(O)c(O)c2)cc1` showed an IC50 of 1070 nM.
In the case of `FC(F)(F)c1ccc(/C=C/c2cncnc2Nc2ccc3nc(Cc4ccccc4)[nH]c3c2)cc1`, the IC50 is reported as 610 nM.
`CC1(CCCCN2CCC(Cc3ccccc3)CC2)C(=O)Nc2ccccc21` (stereo unspecified) gave an IC50 of 860 nM.
For `CC(C)N1CCC(N(Cc2ccc(-c3ccc(Cl)cc3)cc2)C(=O)Cn2c(CCc3cccc(F)c3F)cc(=O)c3ccccc32)CC1`, the IC50 was 930 nM.
Molecule `Cc1nn(-c2ccccc2)c2c1C(c1ccc(C(C)C)cc1)N1C(=N2)N(Cc2ccccc2)c2ccccc21` (stereo unspecified) has an IC50 of 780 nM.
For `O=C(C=Cc1ccc(F)c(Br)c1)NC1CCC(CN2CCC(c3c[nH]c4ccccc34)CC2)CC1` (stereo unspecified), the IC50 was 790 nM and 840 nM.
`N#Cc1cccc(NC(=O)NC2CCN(CCCCCNC(=O)[C@@H]3C[C@H]3c3ccc(Cl)c(Cl)c3)CC2)c1` showed an IC50 of 790 nM.
`CN1CCC(COC(=O)C(O)(c2ccccc2)c2ccccc2)C1` (stereo unspecified) gave an IC50 of 1000 nM.
Work on `Cc1cccc2[nH]c(-c3ccc(-c4ccc(NC(=O)C5CCN(C)CC5)cc4)cc3)nc12` yielded an IC50 of 750 nM.
For `Cc1cc(N[C@@H](Cc2ccccc2)C(=O)NC2CCCC2)nc(NCC2CCCCC2)n1`, the IC50 was 1170 nM.
`COc1cc(C=CC(=O)N2CCC(CN3CCC(c4c[nH]c5ccccc45)CC3)CC2)cc(OC)c1` was tested, and the IC50 was 800 nM.
In the case of `CC[C@H]1CN2CC[C@H]1C[C@H]2[C@@H](O)c1cc(OCCCN(C)C)nc2ccc(OC)cc12`, the IC50 is reported as 130 nM.
Molecule `CCNc1cc(C(=O)N[C@@H](Cc2ccccc2)[C@H](O)CNCc2cccc(OC)c2)c(OC)c(N2CCCCS2(=O)=O)c1` has an IC50 of 690 nM.
In the case of `C=CCOC(=O)N1CCC(CNCc2cccc(-c3ccc(-c4nc5c(C)cccc5[nH]4)cc3)c2)C1` (stereo unspecified), the IC50 is reported as 250 nM.
`COc1cccc(CCc2ccc(O)c3c2C[C@H]2C[C@H]4[C@H](N(C)C)C(=O)C(C(N)=O)=C(O)[C@@]4(O)C(=O)C2=C3O)c1` gave an IC50 of 850 nM.
`Cc1cc(N[C@@H](CC(C)C)C(=O)NCCOc2ccccc2)nc(NCC2CCCCC2)n1` was tested, and the IC50 was 970 nM.
`O=C(Nc1ccc(Cl)cc1)c1cc(Cl)ccc1NC(=O)C1(c2ccc(Cl)cc2)CCCC1` showed an IC50 of 1100 nM.
With `COc1cccc(CN2CCCC(COC(c3ccc(F)cc3)c3ccc(F)cc3)C2)c1O` (stereo unspecified) the IC50 was 330 nM.
With `CC1CCN(CCCNc2ccc(C(=O)Nc3ccc(C(F)(F)F)cc3)cc2[N+](=O)[O-])CC1` the IC50 was 340 nM.
`CC(=O)N(C)c1ccc(C(=O)Nc2cccc(-c3cccc(-c4nc5ccc(C(F)(F)F)cc5[nH]4)c3)c2)cc1` showed an IC50 of 310 nM.
`CC(C)CC(NC(=O)c1ccc(F)cc1)C(=O)N[C@H](/C=N/N1CCNC1=O)CC(C)C` (stereo partly specified) showed an IC50 of 1030 nM.
In the case of `O=C1Nc2cccc3c2C1(CCCCN1CCC(c2c(-c4ccccc4)[nH]c4ccccc24)CC1)CCC3` (stereo unspecified), the IC50 is reported as 1200 nM.
`Oc1cccc(-c2nc3ccc(C4=N[C@@H]5CCCC[C@H]5N4)cc3[nH]2)c1` was tested, and the IC50 was 530 nM.
Molecule `Cc1cc(NCCC(=O)NCCOc2ccccc2)nc(NCCc2ccccc2)n1` has an IC50 of 1230 nM.
`Cc1ccc(CN2CCN(c3cc4c(cc3Cl)CCN4C(=O)Cc3ccc(NC(=O)c4ccc(C(F)(F)F)cc4)cc3)CC2)cc1` was tested, and the IC50 was 940 nM.
With `COc1c(C2CCN(CCCCNC(=O)c3ccc(-c4ccc(Cl)cc4)c(OCCN(C)C)c3)CC2)ccc2c1CCCC2` the IC50 was 190 nM.
Work on `CC(CC(=O)NCC1(c2ccc(F)cc2Cl)CCOCC1)C(=O)c1ccc(Cl)cc1` (stereo unspecified) yielded an IC50 of 860 nM.
In the case of `C[C@H](NC(=O)c1c(CN2CCN(C(=O)C(C)(C)C)CC2)c(-c2cccs2)nc2ccccc12)C1CCCCC1`, the IC50 is reported as 1180 nM.
For `Cc1ccc(Cn2ncc(N3C[C@@H](C)N[C@@H](C)C3)c(Cl)c2=O)cc1NC(=O)Nc1ccc(-c2ccccc2)cc1`, the IC50 was 740 nM.
Molecule `O=C(/C=C/c1ccc(Cl)c(Cl)c1)NCC[C@@H]1C[C@H]1CCN1CCC(c2c[nH]c3ccccc23)CC1` has an IC50 of 790 nM.
With `CC(C)c1ccc2[nH]c(C(=O)NC3CCC(N4CCCc5ccc(C#N)cc5C4)CC3)cc2c1` (stereo unspecified) the IC50 was 1090 nM.
Work on `Cc1cccc2[nH]c(-c3ccc(-c4cccc(C(=O)NCCN5CCCC5)c4)s3)nc12` yielded an IC50 of 1140 nM.
`O=c1cc(NCCCNCc2cccc(OC(F)(F)F)c2)[nH]c2ccccc12` showed an IC50 of 850 nM.
`O=C(/C=C/c1ccc(Cl)c(Cl)c1)NCCCCCN1CCC(C(=O)Nc2ccc(Cl)c(Cl)c2)CC1` was tested, and the IC50 was 640 nM.
For `Cc1cc(C)c2nc(N3CCC(C(=O)NCCCN4CCC(N5CCCCC5)CC4)CC3)sc2c1`, the IC50 was 840 nM.
`Cc1ccc(CNC(=O)[C@H](CCCN)Nc2nc(NCC3CCCCC3)ncc2C)cc1` was tested, and the IC50 was 990 nM.
`O=C(O)c1ccc(OCOCOc2ccc(C(=O)O)c(O)c2)cc1O` was tested, and the IC50 was 190 nM.
Work on `CCC(=O)Nc1ccc(Nc2nc(C)cc(N3CCCC3)n2)cc1` yielded an IC50 of 1320 nM.
In the case of `Cc1cccc2[nH]c(-c3ccc(-c4ccc(CN5CCN(C6CCN(C)CC6)CC5)cc4)cc3)nc12`, the IC50 is reported as 100 nM.
Work on `Cc1cccc2[nH]c(-c3cccc(-c4cccc(NC(=O)c5cnn6cccnc56)c4)c3)nc12` yielded an IC50 of 670 nM.
`Cc1cccc(-c2ccc(NC(=O)C3CCN(Cc4cccc(O)c4)CC3)cc2)c1` was tested, and the IC50 was 980 nM.
`COc1ccc(CNC2CCN(C)CC2)cc1-c1ccc(S(=O)(=O)NCCc2ccccn2)cc1` gave an IC50 of 1090 nM.
In the case of `COC(=O)c1ccc(OCC(O)CO)cc1O` (stereo unspecified), the IC50 is reported as 740 nM.
For `Cc1cccc(CNc2nc(C)cc(N[C@@H](Cc3ccccc3)C(=O)NC3CCCC3)n2)c1`, the IC50 was 650 nM.
Work on `Cc1nc(N=C(N)N)nc2cc3c(cc12)CCC3` yielded an IC50 of 920 nM.
`COc1ccc(-c2csc(NC(=O)CCC(=O)O)n2)cc1OC` gave an IC50 of 840 nM.
`CC(=O)Nc1ccc(C(=O)N2CCN(c3ccnc4cc(Cl)ccc34)CC2)cc1` showed an IC50 of 910 nM.
With `CC(C)COc1ccc(Cl)cc1Cc1ccc(-c2nc3ccc(F)cc3[nH]2)o1` the IC50 was 850 nM.
Work on `CO/N=C(\C)c1ccc2c(c1)CCN(CCC1CCC(NC(=O)/C=C/c3ccc(F)cc3)CC1)CC2` (stereo unspecified) yielded an IC50 of 1070 nM.
`O=c1[nH]ccc2nc(N[C@@H]3CCNC3)nc(Nc3cc(Cl)cc(Cl)c3)c12` was tested, and the IC50 was 740 nM.
Molecule `CC(C)C1=CC(=NOS(=O)(=O)c2ccccc2)C=C(C(C)C)C1=O` has an IC50 of 710 nM.
`CN1CCN(CC(O)CNC(=O)Nc2ccc(Cl)cc2)CC1` (stereo unspecified) gave an IC50 of 230 nM.
`O=C(NC1CCCCC1)N(Cc1ccc(-c2ccc(CNCc3ccc4c(c3)OCO4)cc2)cc1)C1CCN(Cc2ccccc2)CC1` showed an IC50 of 690 nM.
`CC(=O)C1=NN(c2ccc(Cl)cc2)C(c2cccs2)N1c1ccccc1` (stereo unspecified) gave an IC50 of 400 nM.
With `O=C(Nc1cc(C(F)(F)F)cc(C(F)(F)F)c1)c1cc(C(F)(F)F)cc(C(F)(F)F)c1` the IC50 was 870 nM.
`CC(C(=O)OCCOCn1cnc2c(=O)[nH]c(N)nc21)N(C)C(=O)OC(C)(C)C` (stereo unspecified) was tested, and the IC50 was 1000 nM.
`Nc1nc2ccc(CN(C=O)c3ccc(C(=O)N[C@@H](CCC(=O)O)C(=O)O)cc3)cc2c(=O)[nH]1` gave an IC50 of 180 nM.
With `COc1cc(C)nc2ccc(NC(=O)c3cc(C(F)(F)F)cc(C(F)(F)F)c3)cc12` the IC50 was 910 nM.
Work on `O=S1C(Cl)=C(c2ccc(Cl)cc2)c2ccc(Cl)cc21` (stereo unspecified) yielded an IC50 of 990 nM.
In the case of `O=C(Nc1ccc(OC2CCN(Cc3ccc(F)cc3)CC2)c(Cl)c1)c1ccsc1`, the IC50 is reported as 720 nM.
Molecule `COc1ccc(CNc2ccnc3cc(OC)ccc23)cc1` has an IC50 of 770 nM.
For `COc1ccc(CNCc2ccc(-c3ccc(-c4nc5ccc(F)cc5[nH]4)cc3)cc2)cc1`, the IC50 was 250 nM.
`O=C(NCCc1cccc(F)c1)c1ccc(N2CCN(c3ccncc3)CC2)cn1` gave an IC50 of 1020 nM.
With `Cc1noc(C)c1-c1cccc(CNCc2cccc(-c3ccc(-c4nc5c(C)cccc5[nH]4)s3)c2)c1` the IC50 was 210 nM.
`CN(c1ccc2c(c1)nc(NC(=O)C1(c3cc(F)ccc3F)CC1)n2C)c1ccnc(Nc2cccc(CS(C)(=O)=O)c2)n1` was tested, and the IC50 was 1100 nM.
`COc1cccc(-c2c(C#N)c(N)nc3c2c(C)nn3-c2ccccc2)c1O` was tested, and the IC50 was 280 nM.
For `Cc1cc(N[C@@H](Cc2ccccc2)C(=O)NCCc2ccccc2)nc(NCCOc2ccccc2)n1`, the IC50 was 1000 nM.
With `C[C@H](Cc1ccc(OCCCCCCOc2ccc(C[C@@H](C)NC[C@H](O)c3cccc(Cl)c3)cc2)cc1)NC[C@H](O)c1cccc(Cl)c1` the IC50 was 300 nM.
`CCN(CC)S(=O)(=O)c1ccc(CCOCCCCCNCC(O)c2cc(Cl)c(N)c(Cl)c2)s1` (stereo unspecified) was tested, and the IC50 was 860 nM.
Work on `CN(c1ccc2c(c1)nc(NCc1ccccc1)n2C)c1ccnc(Nc2ccc(CS(C)(=O)=O)cc2)n1` yielded an IC50 of 840 nM.
Work on `OC(CN1c2ccccc2Sc2ccccc21)CN(C1CCCCC1)C1CCCCC1` (stereo unspecified) yielded an IC50 of 650 nM.
`O=C(Nc1cccc(-c2nn3ccccc3c2-c2ccnc(Nc3ccccc3)n2)c1)c1c(F)cccc1F` was tested, and the IC50 was 720 nM.
In the case of `O=C(c1cccc(-c2cccc(-c3nc4ccccc4[nH]3)c2)c1)N1CCCCC1CN1CCC(O)C1` (stereo unspecified), the IC50 is reported as 730 nM.
For `CCCCCCn1c(Sc2ccc(C#N)c([N+](=O)[O-])c2)nnc1-c1cccs1`, the IC50 was 710 nM.
`CN(C)c1cc(NN=Cc2cc(Cl)ccc2O)nc(N(C)C)n1` was tested, and the IC50 was 700 nM.
Work on `O=C(NC1CCN(c2ccnc3cc(Cl)ccc23)C1)c1ccc(F)cc1F` (stereo unspecified) yielded an IC50 of 370 nM.
`O=S1(=O)NC2(CCN(CCc3ccc(Cl)cc3)CC2)Nc2cc(F)cc(F)c21` gave an IC50 of 1460 nM.
Work on `Cn1ncc2c3c(CCN4CCC(NCc5cc6c(cn5)OCC6)CC4)c(Cl)cnc3ccc21` yielded an IC50 of 880 nM.
For `Cc1ccc(NC(=O)c2c(C)noc2-c2snnc2C)cc1`, the IC50 was 1370 nM.
For `O=C(Nc1ccc(Cl)cc1)c1ccc(CN2CCCN(Cc3cccc(Cl)c3)CC2)cc1`, the IC50 was 830 nM.
For `CCn1ccc2c(N3CCCS3(=O)=O)cc(C(=O)N[C@@H](Cc3ccccc3)[C@H](O)CNC3CCCCC3)cc21`, the IC50 was 140 nM.
In the case of `O=C(/C=C/c1ccc(Cl)cc1)NCCCCCN1CCN(C(=O)C=Cc2ccc(Cl)c(Cl)c2)CC1`, the IC50 is reported as 990 nM.
Molecule `COc1ccc(CCn2c(=N)c(C(=O)NC3CCCC3)cc3c(=O)n4ccccc4nc32)cc1` has an IC50 of 680 nM.
For `c1ccc2[nH]c(-c3ccc(-c4ccc(CN5CCCCC5)cc4)s3)nc2c1`, the IC50 was 740 nM.
Molecule `Cc1cc(NCCC(=O)NCCOc2ccccc2)nc(Nc2ccccc2)n1` has an IC50 of 1060 nM.
`NC1CCCN(Cc2ccc(-c3cccc(-c4nc5ccccc5[nH]4)c3)cc2)C1` (stereo unspecified) showed an IC50 of 720 nM.
`Cc1nc(-c2cccc(Nc3nccc(NCC(O)c4ccccc4)n3)c2)cs1` (stereo unspecified) showed an IC50 of 790 nM.

From PubChem BioAssay AID2305 (GlaxoSmithKline (GSK), 2010)
